Reference: PubChem BioAssay AID248 (DTP/NCI, 2004)
Values joined by “and” are separate entries in the source; they are usually repeats but may differ in a detail not shown here. Equal entries are not always repeated. Inconclusive results and toxic doses are left out. Rule as the data show it: active = T/C of 150% or more; inactive = T/C below 125%.

Test system: L1210 leukemia ip in BDF1 mice, survival T/C
Experiment: NCI In Vivo Anticancer Drug Screen. Data for tumor model L1210 Leukemia (intraperitoneal) in B6D2F1 (BDF1) mice
Conditions: endpoint: mean survival time, higher = longer survival
Summary of the method: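 Tumor cells were implanted, animals were treated, and survival was followed. The result divides the treated measurement by the vehicle-control measurement.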

[1] = dose: 100.0 mg/kg/injection, schedule: Q04DX003 (ip), vehicle: Klucel (hydroxypropylcellulose) (HPC)
[2] = dose: 200.0 mg/kg/injection, schedule: Q04DX003 (ip), vehicle: Klucel (hydroxypropylcellulose) (HPC)
[3] = dose: 100.0 mg/kg/injection, schedule: Q01DX001 (ip), vehicle: saline
[4] = dose: 300.0 mg/kg/injection, schedule: Q01DX001 (ip), vehicle: saline
[5] = dose: 100.0 mg/kg/injection, schedule: Q01DX009 (ip), vehicle: saline with Tween-80
[6] = dose: 200.0 mg/kg/injection, schedule: Q01DX009 (ip), vehicle: saline with Tween-80
[7] = dose: 400.0 mg/kg/injection, schedule: Q01DX009 (ip), vehicle: saline with Tween-80

Measured: T/C

C1=Cc2ccccc2C(c2ccccn2)c2ccccc21
inactive: dose: 100.0 mg/kg/injection, schedule: Q04DX003 (ip), vehicle: gum acacia 90 % of control | dose: 200.0 mg/kg/injection, schedule: Q04DX003 (ip), vehicle: gum acacia 97 % of control | dose: 400.0 mg/kg/injection, schedule: Q04DX003 (ip), vehicle: gum acacia 93 % of control

Cc1cc([N+](=O)[O-])c(NCCOC(=O)c2ccccc2Cl)c([N+](=O)[O-])c1
inactive: dose: 100.0 mg/kg/injection, schedule: Q01DX009 (ip), vehicle: Klucel (hydroxypropylcellulose) (HPC) 102 % of control | dose: 200.0 mg/kg/injection, schedule: Q01DX009 (ip), vehicle: Klucel (hydroxypropylcellulose) (HPC) 103 % of control | dose: 400.0 mg/kg/injection, schedule: Q01DX009 (ip), vehicle: Klucel (hydroxypropylcellulose) (HPC) 102 % of control

CCCCCCCCCCCCCCCC(=O)NCCO
inactive: dose: 50.0 mg/kg/injection, schedule: Q01DX009 (ip), vehicle: saline sonified 96 % of control | dose: 50.0 mg/kg/injection, schedule: Q04DX003 (ip), vehicle: Klucel (hydroxypropylcellulose) (HPC) 91 % of control | dose: 100.0 mg/kg/injection, schedule: Q01DX009 (ip), vehicle: saline sonified 91 % of control | [1] 106 % of control | dose: 200.0 mg/kg/injection, schedule: Q01DX009 (ip), vehicle: saline sonified 96 % of control | [2] 96 % of control and 89 % of control

NC(=S)NS(=O)(=O)c1ccc(N)cc1
inactive: dose: 89.0 mg/kg/injection, schedule: Q01DX001 (ip), vehicle: saline 97 % of control and 98 % of control | [3] 104 % of control | dose: 133.0 mg/kg/injection, schedule: Q01DX001 (ip), vehicle: saline 98 % of control and 104 % of control | dose: 200.0 mg/kg/injection, schedule: Q01DX001 (ip), vehicle: saline 96 % of control and 92 % of control | [4] 93 % of control and 102 % of control | dose: 400.0 mg/kg/injection, schedule: Q01DX001 (ip), vehicle: saline 98 % of control

CC1(C)C=CC(C)(C)c2c(NS(=O)(=O)c3ccccc3)ccc(NS(=O)(=O)c3ccccc3)c21
inactive: [5] 97 % of control | [6] 92 % of control | [7] 94 % of control

COC(=O)c1ccccc1N=NNc1ccc(C)c(Cl)c1
inactive: dose: 100.0 mg/kg/injection, schedule: Q04DX002 (ip), vehicle: saline with Tween-80 94 % of control | dose: 200.0 mg/kg/injection, schedule: Q04DX002 (ip), vehicle: saline with Tween-80 94 % of control | dose: 400.0 mg/kg/injection, schedule: Q04DX002 (ip), vehicle: saline with Tween-80 87 % of control

COc1ccccc1N1CCN(CCCC(O)c2ccc(F)cc2)CC1 (stereo unspecified)
inactive: dose: 10.0 mg/kg/injection, schedule: Q04DX003 (ip), vehicle: Klucel (hydroxypropylcellulose) (HPC) 91 % of control | dose: 12.5 mg/kg/injection, schedule: Q01DX009 (ip), vehicle: Klucel (hydroxypropylcellulose) (HPC) 98 % of control | dose: 20.0 mg/kg/injection, schedule: Q04DX003 (ip), vehicle: Klucel (hydroxypropylcellulose) (HPC) 98 % of control | dose: 25.0 mg/kg/injection, schedule: Q01DX009 (ip), vehicle: Klucel (hydroxypropylcellulose) (HPC) 100 % of control | dose: 40.0 mg/kg/injection, schedule: Q04DX003 (ip), vehicle: Klucel (hydroxypropylcellulose) (HPC) 90 % of control | dose: 50.0 mg/kg/injection, schedule: Q01DX009 (ip), vehicle: Klucel (hydroxypropylcellulose) (HPC) 98 % of control

CC(=O)Nc1ccc(/C=N/NC(=O)CNC(=O)Nc2cccc(Cl)c2)cc1
inactive: dose: 12.5 mg/kg/injection, schedule: Q01DX009 (ip), vehicle: saline with Tween-80 95 % of control | dose: 25.0 mg/kg/injection, schedule: Q01DX009 (ip), vehicle: saline with Tween-80 95 % of control | dose: 50.0 mg/kg/injection, schedule: Q01DX009 (ip), vehicle: saline with Tween-80 87 % of control and 91 % of control

CCCCCCCCCCCCCCCCSS(=O)(=O)c1ccc(C)cc1
inactive: dose: 75.0 mg/kg/injection, schedule: Q01DX001 (ip), vehicle: saline 98 % of control | dose: 150.0 mg/kg/injection, schedule: Q01DX001 (ip), vehicle: saline 91 % of control | [4] 90 % of control

CN(C)/N=N\c1nc[nH]c1C(=O)NC1CCCCC1
inactive: dose: 10.0 mg/kg/injection, schedule: Q01DX001 (ip), vehicle: saline with Tween-80 100 % of control | dose: 20.0 mg/kg/injection, schedule: Q01DX001 (ip), vehicle: saline with Tween-80 94 % of control | dose: 40.0 mg/kg/injection, schedule: Q01DX001 (ip), vehicle: saline with Tween-80 96 % of control | dose: 75.0 mg/kg/injection, schedule: Q01DX009 (ip), vehicle: saline with Tween-80 98 % of control | dose: 150.0 mg/kg/injection, schedule: Q01DX009 (ip), vehicle: saline with Tween-80 109 % of control | dose: 300.0 mg/kg/injection, schedule: Q01DX009 (ip), vehicle: saline with Tween-80 101 % of control

O=C(O)c1ccc(CCCCl)cc1
inactive: dose: 12.5 mg/kg/injection, schedule: Q01DX001 (ip), vehicle: Klucel (hydroxypropylcellulose) (HPC) 98 % of control | dose: 25.0 mg/kg/injection, schedule: Q01DX001 (ip), vehicle: Klucel (hydroxypropylcellulose) (HPC) 103 % of control | dose: 50.0 mg/kg/injection, schedule: Q01DX001 (ip), vehicle: Klucel (hydroxypropylcellulose) (HPC) 94 % of control

Cc1ccccc1C(=O)NCC(=O)O
inactive: [5] 91 % of control | dose: 100.0 mg/kg/injection, schedule: Q04DX003 (ip), vehicle: saline with Tween-80 95 % of control | [6] 91 % of control | dose: 200.0 mg/kg/injection, schedule: Q04DX003 (ip), vehicle: saline with Tween-80 94 % of control | [7] 86 % of control | dose: 400.0 mg/kg/injection, schedule: Q04DX003 (ip), vehicle: saline with Tween-80 98 % of control

N#CC(C#N)=Cc1ccco1
inactive: dose: 5.0 mg/kg/injection, schedule: Q01DX001 (ip), vehicle: saline 91 % of control | dose: 10.0 mg/kg/injection, schedule: Q01DX001 (ip), vehicle: saline 102 % of control | dose: 20.0 mg/kg/injection, schedule: Q01DX001 (ip), vehicle: saline 100 % of control | dose: 40.0 mg/kg/injection, schedule: Q01DX001 (ip), vehicle: saline 94 % of control

c1ccc2c(c1)CCC1NC21 (stereo unspecified)
inactive: dose: 100.0 mg/kg/injection, schedule: Q01DX001 (ip), vehicle: carboxymethylcellulose (CMC) 103 % of control | dose: 200.0 mg/kg/injection, schedule: Q01DX001 (ip), vehicle: carboxymethylcellulose (CMC) 105 % of control

CCOC(=O)c1ccc(N)c(C(O)(C(F)(F)F)C(F)(F)F)c1
inactive: [5] 106 % of control | [6] 95 % of control | [7] 104 % of control

O=C(CC1C(=O)Nc2ccccc21)c1ccccc1 (stereo unspecified)
inactive: dose: 100.0 mg/kg/injection, schedule: Q04DX002 (ip), vehicle: Klucel (hydroxypropylcellulose) (HPC) 91 % of control | dose: 200.0 mg/kg/injection, schedule: Q04DX002 (ip), vehicle: Klucel (hydroxypropylcellulose) (HPC) 105 % of control | dose: 400.0 mg/kg/injection, schedule: Q04DX002 (ip), vehicle: Klucel (hydroxypropylcellulose) (HPC) 91 % of control

O=C(NCCF)NC1CCCCCCCCCCC1
inactive: dose: 9.5 mg/kg/injection, schedule: Q01DX001 (ip), vehicle: other 101 % of control | dose: 19.0 mg/kg/injection, schedule: Q01DX001 (ip), vehicle: other 92 % of control | dose: 38.0 mg/kg/injection, schedule: Q01DX001 (ip), vehicle: other 121 % of control

O=[N+]([O-])/C=C/c1ccco1
inactive: dose: 18.75 mg/kg/injection, schedule: Q04DX003 (ip), vehicle: saline with Tween-80 101 % of control | dose: 37.5 mg/kg/injection, schedule: Q04DX003 (ip), vehicle: saline with Tween-80 95 % of control | dose: 75.0 mg/kg/injection, schedule: Q04DX003 (ip), vehicle: saline with Tween-80 101 % of control

Cc1c(CCO)sc[n+]1Cc1cccc([N+](=O)[O-])c1
inactive: [3] 98 % of control

O=C1c2ccccc2-c2cccc3ccc(-c4ccccc4)c1c23
inactive: dose: 75.0 mg/kg/injection, schedule: Q01DX009 (ip), vehicle: Klucel (hydroxypropylcellulose) (HPC) 105 % of control | [1] 96 % of control | dose: 150.0 mg/kg/injection, schedule: Q01DX009 (ip), vehicle: Klucel (hydroxypropylcellulose) (HPC) 97 % of control | [2] 96 % of control | dose: 300.0 mg/kg/injection, schedule: Q01DX009 (ip), vehicle: Klucel (hydroxypropylcellulose) (HPC) 101 % of control | dose: 400.0 mg/kg/injection, schedule: Q04DX003 (ip), vehicle: Klucel (hydroxypropylcellulose) (HPC) 100 % of control
